Reference: BindingDB's records for doi:10.7270/Q2RJ4GVG (The Scripps Research Institute Molecular Screening Center, 2007)

Target: T1, Isoform 2 of Nuclear receptor ROR-alpha (Alpha-2) (Homo sapiens, UniProt P35398)
T1 sequence (P35398 whole entry): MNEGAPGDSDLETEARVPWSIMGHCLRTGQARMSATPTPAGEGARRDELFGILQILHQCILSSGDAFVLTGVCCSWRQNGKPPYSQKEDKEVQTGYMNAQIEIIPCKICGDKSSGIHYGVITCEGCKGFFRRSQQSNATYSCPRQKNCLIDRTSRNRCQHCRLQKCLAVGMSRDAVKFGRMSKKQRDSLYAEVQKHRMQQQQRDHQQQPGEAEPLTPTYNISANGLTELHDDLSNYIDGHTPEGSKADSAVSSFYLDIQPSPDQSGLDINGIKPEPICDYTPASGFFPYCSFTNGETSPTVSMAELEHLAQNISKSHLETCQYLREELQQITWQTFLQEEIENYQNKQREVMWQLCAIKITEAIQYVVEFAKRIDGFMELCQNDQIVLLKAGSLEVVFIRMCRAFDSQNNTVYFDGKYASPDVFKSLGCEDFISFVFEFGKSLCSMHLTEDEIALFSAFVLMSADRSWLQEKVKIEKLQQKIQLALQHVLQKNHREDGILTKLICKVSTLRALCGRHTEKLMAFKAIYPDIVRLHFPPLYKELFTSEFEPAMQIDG
Test: activators of RORA nuclear receptor, dose response, cell-based, CHO-K1, Gal4-RORA LBD, luciferase luminescence (AID 681)
Conditions: not given

EC50 [nM]	SMILES
> 99000	CCN(CCCNC(=O)c1cn(CC)c2ccc(S(=O)(=O)N(C)C)cc2c1=O)c1cccc(C)c1 [6-(dimethylsulfamoyl)-1-ethyl-N-[3-(N-ethyl-3-methyl-anilino)propyl]-4-keto-quinoline-3-carboxamide]
> 1100	Nc1c(C(=O)NCCN2CCOCC2)c2nc3ccccc3nc2n1-c1ccc2c(c1)OCO2 [2-amino-1-(1,3-benzodioxol-5-yl)-N-(2-morpholin-4-ylethyl)pyrrolo[3,2-b]quinoxaline-3-carboxamide]
8220	Cc1cc(NC(=O)c2oc3ccccc3c2C)ccc1-n1cnnn1 [3-Methyl-benzofuran-2-carboxylic acid (3-methyl-4-tetrazol-1-yl-phenyl)-amide]
221	Cn1cccc1C(=O)OCc1csc(-c2ccccc2)n1 [(2-phenyl-1,3-thiazol-4-yl)methyl 1-methylpyrrole-2-carboxylate]
> 99000	O=C1OC(N2CCN(Cc3ccccc3)CC2)c2ccccc21 (stereo not drawn) [3-(4-benzylpiperazin-1-yl)-3H-2-benzofuran-1-one]
563	Cc1cccn2cc(-c3ccccc3)nc12 [8-methyl-2-phenyl-imidazo[1,2-a]pyridine]
4570	COc1cccc(NC(=O)c2nnn(Cc3ccc(Br)cc3F)c2N)c1 [5-amino-1-(4-bromo-2-fluoro-benzyl)-N-(3-methoxyphenyl)triazole-4-carboxamide]
> 99000	O=C1N(CCCN2C(=O)C3(OCCO3)c3ccccc32)c2ccccc2C12OCCO2 [1'-[3-(2'-ketospiro[1,3-dioxolane-2,3'-indoline]-1'-yl)propyl]spiro[1,3-dioxolane-2,3'-indoline]-2'-one]
823	CCn1c(-c2ccc(N(C)C)cc2)nc2ccccc21 [4-(1-ethyl-2-benzimidazolyl)-N,N-dimethylaniline]
2030	COc1ccc2nc(NC(=O)CSc3nnc(-c4ccoc4C)n3C)sc2c1 [MLS000073639]
2320	Cc1ccc(-c2nc(C#N)c(NCc3ccco3)o2)cc1 [5-(2-furanylmethylamino)-2-(4-methylphenyl)-4-oxazolecarbonitrile]
> 99000	COC(=O)c1c(NC(=O)CC2SCC(C(=O)OC)NC2=O)sc2c1CCCC2 (stereo not drawn) [6-[2-[(3-carbomethoxy-4,5,6,7-tetrahydrobenzothiophen-2-yl)amino]-2-keto-ethyl]-5-keto-thiomorpholine-3-carboxylic acid methyl ester]
4340	O=C(c1ccco1)N1CCN(c2ncnc3c(-c4ccccc4)nsc23)CC1 [2-furanyl-[4-(3-phenyl-7-isothiazolo[4,5-d]pyrimidinyl)-1-piperazinyl]methanone]
624	CCOc1ccc(-c2nc(C#N)c(NC3CC3)o2)cc1 [5-(cyclopropylamino)-2-(4-ethoxyphenyl)-1,3-oxazole-4-carbonitrile]
2640	CCOc1cc(N2CCOCC2)c(OCC)cc1NS(=O)(=O)c1ccc(Cl)s1 [5-chloranyl-N-(2,5-diethoxy-4-morpholin-4-yl-phenyl)thiophene-2-sulfonamide]
> 99000	Cc1cc(N)c(NC2=CC(=O)CC(C)(C)C2)cc1C [3-(2-amino-4,5-dimethyl-anilino)-5,5-dimethyl-cyclohex-2-en-1-one]
1050	COc1ccc(C(=O)Nc2cc(C)on2)cc1 [4-methoxy-N-(5-methyl-1,2-oxazol-3-yl)benzamide]
> 3670	CCc1nnc2c3cnn(-c4ccccc4)c3ncn12 [MLS000080478]
> 1220	Clc1ccccc1OCCn1cnc2ccccc21 [1-[2-(2-chloranylphenoxy)ethyl]benzimidazole]
4000	COc1ccc(C(=O)n2c(-c3ccco3)nc3ccccc32)cc1 [MLS000039368]

Further lines, the compound ahead of its results:

SMILES	EC50 [nM]
O=C(c1ccc(-c2nnc(-c3ccccc3)o2)cc1)N1CCCCCC1 [1-azepanyl-[4-(5-phenyl-1,3,4-oxadiazol-2-yl)phenyl]methanone]	282
COCCOC(=O)c1[nH]c2c(c1C)C(=O)CC(c1cc(OC)ccc1OC)C2 (stereo not drawn) [2-methoxyethyl 6-(2,5-dimethoxyphenyl)-3-methyl-4-oxo-1,5,6,7-tetrahydroindole-2-carboxylate]	> 3670
COc1ccccc1-c1nnc(NC(C)=O)s1 [MLS000041972]	1750
CCOC(=O)c1ccccc1NC(=O)CSc1nnnn1C1CCCCC1 [2-[2-(1-Cyclohexyl-1H-tetrazol-5-ylsulfanyl)-acetylamino]-benzoic acid ethyl ester]	> 99000
CCOC(=O)Nc1ccc2c(c1)Nc1ccccc1S2 [(10H-Phenothiazin-2-yl)-carbamic acid ethyl ester]	3430
Cn1c(SCc2ccccc2F)nc2cccnc21 [2-(2-Fluoro-benzylsulfanyl)-3-methyl-3H-imidazo[4,5-b]pyridine]	1980
Cc1ccccc1Cn1ccc(NC(=O)c2onc(C)c2Cl)n1 [4-chloranyl-3-methyl-N-[1-[(2-methylphenyl)methyl]pyrazol-3-yl]-1,2-oxazole-5-carboxamide]	> 11000
CN1CCN(S(=O)(=O)c2ccc(Br)s2)CC1 [1-(5-bromanylthiophen-2-yl)sulfonyl-4-methyl-piperazine]	> 99000
O=C(Nc1ccc2nc(-c3ccc(Br)o3)[nH]c2c1)c1cccs1 [SMR000046012]	4090
COc1cc(C)c(C(C)C)cc1S(=O)(=O)n1cnc(C)c1 [1-(2-methoxy-4-methyl-5-propan-2-yl-phenyl)sulfonyl-4-methyl-imidazole]	1850
Cc1ccc2c(c1)c1c3n2CCCNC3CCC1 (stereo not drawn) [MLS000105423]	> 99000
Oc1ccc(Cl)cc1C=Nc1nc2ccccc2[nH]1 [SMR000103225]	> 99000
COc1cccc(-c2noc(-c3cccs3)n2)c1 [3-(3-methoxyphenyl)-5-(2-thienyl)-1,2,4-oxadiazole]	> 407
CCCCOc1ccc(-c2nnn(CC(=O)NCc3ccco3)n2)cc1 [2-[5-(4-Butoxy-phenyl)-tetrazol-2-yl]-N-furan-2-ylmethyl-acetamide]	5070
COc1cccc(-c2noc(-c3cccnc3)n2)c1 [3-(3-methoxyphenyl)-5-(3-pyridinyl)-1,2,4-oxadiazole]	853
CCN(CC)C(=O)Oc1ccc2c(=O)c(-c3ccccc3)coc2c1 [(4-oxidanylidene-3-phenyl-chromen-7-yl) N,N-diethylcarbamate]	1240
CCOC(=O)CSc1nc2cc(OCC)ccc2cc1C#N [(3-Cyano-7-ethoxy-quinolin-2-ylsulfanyl)-acetic acid ethyl ester]	1830
Clc1ccc(-c2nnc(-c3ccccc3Cl)o2)cc1 [2-(2-chlorophenyl)-5-(4-chlorophenyl)-1,3,4-oxadiazole]	431
CC(=O)C(C)Oc1ccc2c3c(c(=O)oc2c1C)CCCC3 (stereo not drawn) [3-(2-keto-1-methyl-propoxy)-4-methyl-7,8,9,10-tetrahydrobenzo[c]chromen-6-one]	628
Cc1c(C(=O)OCC2CCCO2)[nH]c2c1C(=O)CC(c1ccco1)C2 (stereo not drawn) [oxolan-2-ylmethyl 6-(furan-2-yl)-3-methyl-4-oxo-1,5,6,7-tetrahydroindole-2-carboxylate]	1670

Same assay, conditions: inactive by the depositor's call

EC50 [nM]	SMILES
10800	O=c1c2ccccc2nc2ccc(NCc3ccco3)nn12 [2-(2-furanylmethylamino)-10-pyridazino[6,1-b]quinazolinone]
12100	O=C(CSc1nc[nH]n1)Nc1nnc(-c2ccccc2)s1 [SMR000091719]
10100	O=C(NCc1cccs1)c1noc2c1CCCC2 [MLS000087354]
